Data published in patent publication US20080085885A1, “Inhibition Of Voluntary Ethanol Consumption With Non-Peptidyl Melanocortin-4 Receptor Agonists” (priority 2004, published 2008).
“Also recorded” adds a separate entry of the source.

Tests used:
AA rats = AA rats with established ethanol intake; Ploj et al. 2002; cited from earlier work
Male Wistar rats [1] = test: Alcohol deprivation effect (ADE) after 10 day deprivation (animal model of alcohol relapse); type: in vivo, rat; settings: for Alcohol deprivation effect (ethanol consumed after 10 day deprivation): po
Protocol: (§1) FIG. 1. Operant training for oral ethanol across 30 minute test sessions in rats (n=8-10). Rats were trained on a continuous reinforcement (FR-1) schedule using a saccharine fading procedure and once stable levels of ethanol self-administration (10% w/v) were achieved, testing was initiated. Test 1 examined the effects of melanocortin 4 receptor agonist, Compound A, on maintenance levels of ethanol self-administration and Test 2 examined the effects of Compound A on the Alcohol Deprivation Effect (ADE).
FIG. 3. […] Operant training for oral ethanol in 30 minute test sessions in rats (n=8-10). Following the maintenance self-administration test, rats were rebaselined prior to being confined to their home-cages for a 10 day deprivation period. Melanocortin 4 receptor agonist, Compound A was administered at 0, 5, 10 or 20 mg/kg, po prior to reintroduction to the test chambers following deprivation. […] The symbol * indicates a significant difference between baseline and drug treated groups (p<0.05). The symbol # indicates a significant difference between vehicle treated (ADE) and drug treated groups (p<0.05).
Method: Methods for this experiment were as described in EXAMPLE 3. Following the maintenance ethanol self-administration experiment, rats were re-baselined and once reliable levels of alcohol-reinforced self-administration were achieved, rats were confined to their home cages for a 10-day period. Prior to reintroduction to the test chamber, animals were injected with Compound (0, 5, 10 and 20 mg/kg).

Male Wistar rats [2] = test: Maintenance operant ethanol self-administration (animal model of alcohol reward); type: in vivo, rat
Protocol: as §1
FIG. 2. […] Operant training for oral ethanol in 30 minute test sessions in rats (n=8-10). Melanocortin 4 receptor agonist, Compound A, was administered at 0, 5, 10 or 20 mg/kg, po prior to testing. […] The symbol * indicates a significant difference between the vehicle and drug treated groups (p<0.05).
Animals: Male Wistar rats were used in all experiments. Body weight was 180-200 g at the start of the experiments. Rats were housed 2-3 per cage with food and water available ad libitum. Lights were on a 12-hour light/dark cycle, with lights on at 0600. All procedures met the guidelines of the National Institutes of Health Guide for the Care and Use of Laboratory Animals.
Operant Ethanol Self-Administration: Ethanol dilutions (5, 8 and 10% w/v) were prepared with 95% ethyl alcohol and tap water. Saccharin (Sigma Chemical Co., St. Louis, Mo.) was added to water or ethanol solutions to achieve a concentration of 0.2% w/v. Standard operant chambers (Med Associates, VT) housed in sound-attenuated chambers were used for ethanol self-administration. Syringe pumps dispensed ethanol and water into two stainless steel reservoirs mounted 4 cm above the floor of the chamber, centered between the two operant levers. The two retractable levers were located 4.5 cm to either side of the fluid reservoir. Fluid delivery and recording of operant responding were controlled by microcomputer. Rats were trained on a continuous reinforcement fixed-ratio 1 (FR1) schedule to self-administer oral alcohol (10% w/v, 0.1 ml per delivery) or water in 30 minute sessions. […]

hMC1bR = hMC1bR (Homo sapiens, UniProt Q01726); test: cAMP functional assay (agonist); type: cell-based; settings: functional selectivity stated in text; 45 min
Protocol: Cells (for example, CHO- or L-cells or other eukaryotic cells) expressing a human melanocortin receptor (see e.g. Yang-YK; Ollmann-MM; Wilson-BD; Dickinson-C; Yamada-T; Barsh-GS; Gantz-I; Mol-Endocrinol. 1997 March; 11(3): 274-80) were dissociated from tissue culture flasks by rinsing with Ca and Mg free phosphate buffered saline (14190-136, Life Technologies, Gaithersburg, Md.) and detached following 5 min incubation at 37° C. with enzyme free dissociation buffer (S-014-B, Specialty Media, Lavellette, N.J.). Cells were collected by centrifugation and resuspended in Earle's Balanced Salt Solution (14015-069, Life Technologies, Gaithersburg, Md.) with additions of 10 mM HEPES pH 7.5, 5 mM MgCl2, 1 mM glutamine and 1 mg/ml bovine serum albumin. Cells were counted and diluted to 1 to 5×10^6/mL. The phosphodiesterase inhibitor 3-isobutyl-1-methylxanthine was added to cells to 0.6 mM.
Agonist Assay: Test compounds were diluted in dimethylsulfoxide (DMSO) (10^−5 to 10^−10 M) and 0.1 volume of compound solution was added to 0.9 volumes of cell suspension; the final DMSO concentration was […]. After room temperature incubation for 45 min, cells were lysed by incubation at 100° C. for 5 min to release accumulated cAMP.
cAMP was measured in an aliquot of the cell lysate with the Amersham (Arlington Heights, Ill.) cAMP detection assay (RPA556). […]

Chain of hMC1bR (Q01726 whole entry): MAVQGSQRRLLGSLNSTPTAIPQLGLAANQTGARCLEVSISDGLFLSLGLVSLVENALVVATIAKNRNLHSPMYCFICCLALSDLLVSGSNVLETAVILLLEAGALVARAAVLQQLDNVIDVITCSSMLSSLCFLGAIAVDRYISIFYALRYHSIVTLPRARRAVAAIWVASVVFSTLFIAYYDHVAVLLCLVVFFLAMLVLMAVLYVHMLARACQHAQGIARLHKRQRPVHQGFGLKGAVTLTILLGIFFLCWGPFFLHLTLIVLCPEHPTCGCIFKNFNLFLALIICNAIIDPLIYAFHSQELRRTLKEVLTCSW

Compound	Voluntary ethanol drinking (AA rats)	Alcohol deprivation effect (ethanol consumed after 10 day deprivation) (Male Wistar rats [1]; 5 mg/kg)	Alcohol deprivation effect (ethanol consumed after 10 day deprivation) (Male Wistar rats [1]; 10 mg/kg)	Alcohol deprivation effect (ethanol consumed after 10 day deprivation) (Male Wistar rats [1]; 20 mg/kg)	Water consumption (Male Wistar rats [1]; ADE test, any dose (5, 10, 20 mg/kg, po))	Alcohol deprivation effect, overall statement (Male Wistar rats [1]; male Wistar rats, 10 day forced deprivation, FIG. 3)	Ethanol self-administration (10% w/v), 30 minute session (Male Wistar rats [2]; 20 mg/kg, po, vs vehicle/baseline, p<0.05)	Water consumption (Male Wistar rats [2]; maintenance test, any dose (5, 10, 20 mg/kg, po))	Reduction of ethanol self administration (Male Wistar rats [2]; male Wistar rats, dose dependent, FIG. 2)	EC50 for melanocortin 4 receptor lower than for melanocortin 1 receptor (hMC1bR)
MTII	significantly reduces voluntary ethanol drinking	–	–	–	–	–	–	–	–	–
CC[C@H](NC(C)=O)c1cc(Cl)ccc1C1CCN(C(=O)C2CN(C(C)(C)C)C[C@H]2c2ccc(F)cc2F)CC1 (stereo partly shown) [Compound A]	–	blocking the ADE; also recorded: significant attenuation of the alcohol deprivation effect	blocking the ADE; also recorded: significant attenuation of the alcohol deprivation effect	significant decrease below baseline levels of consumption; also recorded: further reduction below baseline levels	not significantly altered; also recorded: not significantly changed	reduced the increase in ethanol consumption	significant reductions from baseline levels; also recorded: significant reduction in ethanol self-administration	not significantly altered; also recorded: not significantly changed; also recorded: no significant effects on water consumption	approximately 50%	at least 120 fold
